Assay results: PMC7419507, “In vitro Cas9-assisted editing of modular polyketide synthase genes to produce desired natural product derivatives” (Nature Communications, 2020)
“And” between values parts separate entries of the source, which are not always exact repeats. Equal entries are not always repeated.

Legend:
[1] = Cytotoxicity assay (CellTiter-Glo, 72 h), SKOV-3; format: cell-based, human; conditions: human, raw replicate data, read-out: SKOV3 viability (%)
Method in brief: (§1)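 1000 cells/well; 4 h settle, then 2-fold serial dilutions (0.5% DMSO final), 72 h, 37 °C/5% CO2. Read-out: CellTiter-Glo luminescence. Media: RPMI1640 + 10% FBS (Jurkat, MESO-1; Jurkat also Glutamax), DMEM + 10% FBS (SKOV-3).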

[2] = test system: malignant pleural mesothelioma MESO-1 cells; test: Cytotoxicity assay (CellTiter-Glo, 72 h), MESO-1; format: cell-based; conditions: raw replicate data
Method in brief: as §1

[3] = Cytotoxicity assay (CellTiter-Glo, 72 h), MESO-1; format: cell-based; conditions: human
Method in brief: as §1

COC1CC2CCC(C)C(O)(O2)C(=O)C(=O)N2CCCCC2C(=O)OC(C(C)CC2CCC(O)C(OC)C2)CCC(C)C=C(C)C(O)C(OC)C(=O)C(C)CC(C)C=CC=CC=C1C (stereo not shown) [Compound 16, 32-desketorapamycin] showed a viability at 72 h, 9.53674e-05 uM ([1]; SKOV-3 cells (ovarian adenocarcinoma), conc 9.53674e-5 uM) of 102%, a viability at 72 h, 0.000190735 uM ([1]; SKOV-3 cells (ovarian adenocarcinoma), conc 0.000190735 uM) of 96.2% and a viability at 72 h, 0.00038147 uM ([1]; SKOV-3 cells (ovarian adenocarcinoma), conc 0.00038147 uM) of 97.4%. For the same molecule, the viability at 72 h, 0.000762939 uM ([1]; SKOV-3 cells (ovarian adenocarcinoma), conc 0.000762939 uM) was 84.9%, the viability at 72 h, 0.00152588 uM ([1]; SKOV-3 cells (ovarian adenocarcinoma), conc 0.00152588 uM) was 77.3% and the viability at 72 h, 0.00305176 uM ([1]; SKOV-3 cells (ovarian adenocarcinoma), conc 0.00305176 uM) was 68.9%. For the same molecule, the viability at 72 h, 0.00610352 uM ([1]; SKOV-3 cells (ovarian adenocarcinoma), conc 0.00610352 uM) was 59%, the viability at 72 h, 0.012207 uM ([1]; SKOV-3 cells (ovarian adenocarcinoma), conc 0.012207 uM) was 61.7% and the viability at 72 h, 0.0244141 uM ([1]; SKOV-3 cells (ovarian adenocarcinoma), conc 0.0244141 uM) was 60%. For the same molecule, the viability at 72 h, 0.0488281 uM ([1]; SKOV-3 cells (ovarian adenocarcinoma), conc 0.0488281 uM) was 59.3%, the viability at 72 h, 0.0976562 uM ([1]; SKOV-3 cells (ovarian adenocarcinoma), conc 0.0976562 uM) was 58.2% and the viability at 72 h, 0.195312 uM ([1]; SKOV-3 cells (ovarian adenocarcinoma), conc 0.195312 uM) was 56.3%. It also gave a viability at 72 h, 0.390625 uM ([1]; SKOV-3 cells (ovarian adenocarcinoma), conc 0.390625 uM) of 55.6%, a viability at 72 h, 12.5 uM ([1]; SKOV-3 cells (ovarian adenocarcinoma), conc 12.5 uM) of 51.2% and a viability at 72 h, 25 uM ([1]; SKOV-3 cells (ovarian adenocarcinoma), conc 25 uM) of 45.3%. For the same molecule, the viability at 72 h, 50 uM ([1]; SKOV-3 cells (ovarian adenocarcinoma), conc 50 uM) was 39.9%, the viability at 72 h, 0.78125 uM ([1]; SKOV-3 ovarian adenocarcinoma cells, conc 0.78125 uM) was 57.3% and the viability at 72 h, 1.5625 uM ([1]; SKOV-3 ovarian adenocarcinoma cells, conc 1.5625 uM) was 55%. The viability at 72 h, 3.125 uM ([1]; SKOV-3 ovarian adenocarcinoma cells, conc 3.125 uM) was 57.8%, the viability at 72 h, 6.25 uM ([1]; SKOV-3 ovarian adenocarcinoma cells, conc 6.25 uM) was 57% and the “MESO1 viability (%)” value ([2]; conc 9.53674e-5 uM) was 98.1% and 96.4%. The “MESO1 viability (%)” value ([2]; conc 0.000190735 uM) was 91.1% and 98.0%, the “MESO1 viability (%)” value ([2]; conc 0.00038147 uM) was 95.4% and 92.4% and the “MESO1 viability (%)” value ([2]; conc 0.000762939 uM) was 78.9% and 75.5%. The “MESO1 viability (%)” value ([2]; conc 0.00152588 uM) was 89.1% and 81.4%, the “MESO1 viability (%)” value ([2]; conc 0.00305176 uM) was 75.1% and 66.9% and the “MESO1 viability (%)” value ([2]; conc 0.00610352 uM) was 75.6% and 76.2%. The “MESO1 viability (%)” value ([2]; conc 0.012207 uM) was 76.9% and 75.8%, the “MESO1 viability (%)” value ([2]; conc 0.0244141 uM) was 81.3% and 75.2% and the “MESO1 viability (%)” value ([2]; conc 0.0488281 uM) was 73.0% and 74.7%. For the same molecule, the “MESO1 viability (%)” value ([2]; conc 0.0976562 uM) was 75.8%, the “MESO1 viability (%)” value ([2]; conc 0.195312 uM) was 76.9% and 68.9% and the “MESO1 viability (%)” value ([2]; conc 0.390625 uM) was 78.5%. For the same molecule, the “MESO1 viability (%)” value ([2]; conc 0.78125 uM) was 69.3% and 68.9%, the “MESO1 viability (%)” value ([2]; conc 1.5625 uM) was 73.6% and 69.8% and the “MESO1 viability (%)” value ([2]; conc 3.125 uM) was 61.9% and 65.8%. For the same molecule, the “MESO1 viability (%)” value ([2]; conc 6.25 uM) was 68.9% and 66.9%, the “MESO1 viability (%)” value ([2]; conc 12.5 uM) was 60.8% and 58.2% and the “MESO1 viability (%)” value ([2]; conc 25 uM) was 49.9% and 47.7%. The “MESO1 viability (%)” value ([2]; conc 50 uM) was 33.7% and 30.2%, the viability at 72 h ([3]; MESO-1 cells (malignant pleural mesothelioma), MESO-1 cells, 72 h, read-out: Plateau level of cell viability in the dose-response curve) was about 75% and the viability at 72 h, 9.53674e-05 uM ([3]; MESO-1 malignant pleural mesothelioma cells, conc 9.53674e-5 uM, raw replicate data, read-out: MESO1 viability (%)) was 102%. For the same molecule, the viability at 72 h, 0.000190735 uM ([3]; MESO-1 malignant pleural mesothelioma cells, conc 0.000190735 uM, raw replicate data, read-out: MESO1 viability (%)) was 86.2%, the viability at 72 h, 0.00038147 uM ([3]; MESO-1 malignant pleural mesothelioma cells, conc 0.00038147 uM, raw replicate data, read-out: MESO1 viability (%)) was 94.8% and the viability at 72 h, 0.000762939 uM ([3]; MESO-1 malignant pleural mesothelioma cells, conc 0.000762939 uM, raw replicate data, read-out: MESO1 viability (%)) was 80.3%. The viability at 72 h, 0.00152588 uM ([3]; MESO-1 malignant pleural mesothelioma cells, conc 0.00152588 uM, raw replicate data, read-out: MESO1 viability (%)) was 82.2%, the viability at 72 h, 0.00305176 uM ([3]; MESO-1 malignant pleural mesothelioma cells, conc 0.00305176 uM, raw replicate data, read-out: MESO1 viability (%)) was 74.9% and the viability at 72 h, 0.00610352 uM ([3]; MESO-1 malignant pleural mesothelioma cells, conc 0.00610352 uM, raw replicate data, read-out: MESO1 viability (%)) was 80.5%. It also gave a viability at 72 h, 0.012207 uM ([3]; MESO-1 malignant pleural mesothelioma cells, conc 0.012207 uM, raw replicate data, read-out: MESO1 viability (%)) of 73.8%, a viability at 72 h, 0.0244141 uM ([3]; MESO-1 malignant pleural mesothelioma cells, conc 0.0244141 uM, raw replicate data, read-out: MESO1 viability (%)) of 74.4% and a viability at 72 h, 0.0488281 uM ([3]; MESO-1 malignant pleural mesothelioma cells, conc 0.0488281 uM, raw replicate data, read-out: MESO1 viability (%)) of 72.5%. It also gave a viability at 72 h, 0.0976562 uM ([3]; MESO-1 malignant pleural mesothelioma cells, conc 0.0976562 uM, raw replicate data, read-out: MESO1 viability (%)) of 78.4%, a viability at 72 h, 0.195312 uM ([3]; MESO-1 malignant pleural mesothelioma cells, conc 0.195312 uM, raw replicate data, read-out: MESO1 viability (%)) of 68.5% and a viability at 72 h, 0.390625 uM ([3]; MESO-1 malignant pleural mesothelioma cells, conc 0.390625 uM, raw replicate data, read-out: MESO1 viability (%)) of 78.4%. For the same molecule, the viability at 72 h, 0.78125 uM ([3]; MESO-1 malignant pleural mesothelioma cells, conc 0.78125 uM, raw replicate data, read-out: MESO1 viability (%)) was 66.1%, the viability at 72 h, 1.5625 uM ([3]; MESO-1 malignant pleural mesothelioma cells, conc 1.5625 uM, raw replicate data, read-out: MESO1 viability (%)) was 73.1% and the viability at 72 h, 3.125 uM ([3]; MESO-1 malignant pleural mesothelioma cells, conc 3.125 uM, raw replicate data, read-out: MESO1 viability (%)) was 67.9%. It also gave a viability at 72 h, 6.25 uM ([3]; MESO-1 malignant pleural mesothelioma cells, conc 6.25 uM, raw replicate data, read-out: MESO1 viability (%)) of 67.3%, a viability at 72 h, 12.5 uM ([3]; MESO-1 malignant pleural mesothelioma cells, conc 12.5 uM, raw replicate data, read-out: MESO1 viability (%)) of 59.2% and a viability at 72 h, 25 uM ([3]; MESO-1 malignant pleural mesothelioma cells, conc 25 uM, raw replicate data, read-out: MESO1 viability (%)) of 53.2%. For the same molecule, the viability at 72 h, 50 uM ([3]; MESO-1 malignant pleural mesothelioma cells, conc 50 uM, raw replicate data, read-out: MESO1 viability (%)) was 31.7%.
